From ChEMBL document CHEMBL1141903, “Synthesis and evaluation of CCR5 antagonists containing modified 4-piperidinyl-2-phenyl-1-(phenylsulfonylamino)-butane” (Bioorg Med Chem Lett, 2005)
pIC50: −log10 of the molar value.

Experiments:
[1] = target: C-C chemokine receptor type 5 (Homo sapiens, UniProt P51681); test: Inhibitory concentration against human C-C chemokine receptor type 5 in CHO cells with [125I]-MIP-1 alpha radioligand; type: cell-based
[2] = tested on: Human immunodeficiency virus 1; test: Antiviral activity in an in vitro HIV replication assay; type: functional, organism-based

Chain of C-C chemokine receptor type 5 (P51681 whole entry): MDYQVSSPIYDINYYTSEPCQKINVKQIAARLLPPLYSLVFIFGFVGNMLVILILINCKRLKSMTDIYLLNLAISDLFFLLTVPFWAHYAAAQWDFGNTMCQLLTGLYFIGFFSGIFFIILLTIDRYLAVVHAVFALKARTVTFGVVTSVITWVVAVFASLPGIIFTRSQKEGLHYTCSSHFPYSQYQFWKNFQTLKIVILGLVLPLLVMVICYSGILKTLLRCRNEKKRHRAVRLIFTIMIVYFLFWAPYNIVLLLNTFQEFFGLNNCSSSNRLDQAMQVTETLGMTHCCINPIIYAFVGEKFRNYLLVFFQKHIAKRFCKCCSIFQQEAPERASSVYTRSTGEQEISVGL

| SMILES | pIC50 [1] | IC90 ([2]; Human immunodeficiency virus 1) | IC90 [2] |
| --- | --- | --- | --- |
| C[C@H]1[C@@H](c2ccccc2)OC(=O)N1C1CCN(CC[C@H](CN(C)S(=O)(=O)c2ccccc2)c2ccccc2)CC1 | 7.44 | – | – |
| CN(C[C@@](C)(CCN1CCC2C(CCC(=O)N2Cc2ccccc2)C1)c1ccccc1)S(=O)(=O)c1ccccc1 (some centres undefined) | 8.00 | 333 nM | – |
| CN(C[C@](C)(CCN1CCC2C(CCN2C(=O)OCc2ccc([N+](=O)[O-])cc2)C1)c1ccccc1)S(=O)(=O)c1ccccc1 (mixture of isomers) | 8.44 | 111 nM | – |
| CN(C[C@@](C)(CCN1CCC2C(CCC(=O)N2Cc2ccc([N+](=O)[O-])cc2)C1)c1ccccc1)S(=O)(=O)c1ccccc1 (mixture of isomers) | 8.28 | 333 nM | – |
| CN1C(=O)CCC2CN(CC[C@](C)(CN(C)S(=O)(=O)c3ccccc3)c3ccccc3)CCC21 (mixture of isomers) | 7.55 | > 300 nM | – |
| CN(C[C@@](C)(CCN1CCC2NCCC2C1)c1ccccc1)S(=O)(=O)c1ccccc1 (mixture of isomers) | < 5.70 | – | – |
| CN(C[C@@](C)(CCN1CCC2C(CCN2C(=O)Cc2ccccc2)C1)c1ccccc1)S(=O)(=O)c1ccccc1 (mixture of isomers) | 8.19 | 111 nM | – |
| CN(CC(C)(CCN1CCC2C(CCN2C(=O)OC(C)(C)C)C1)c1ccccc1)S(=O)(=O)c1ccccc1 (single isomer, unassigned; isomer A) | < 5.70 | – | – |
| CN(CC(C)(CCN1CCC2C(CCN2C(=O)OCc2ccc([N+](=O)[O-])cc2)C1)c1ccccc1)S(=O)(=O)c1ccccc1 (single isomer, unassigned; isomer A) | 7.68 | – | 300 nM |
| CN(CC(C)(CCN1CCC2C(CCN2C(=O)OC(C)(C)C)C1)c1ccccc1)S(=O)(=O)c1ccccc1 (single isomer, unassigned; isomer B) | 8.70 | 100 nM | – |
| CN(CC(C)(CCN1CCC2C(CCN2C(=O)OCc2ccc([N+](=O)[O-])cc2)C1)c1ccccc1)S(=O)(=O)c1ccccc1 (single isomer, unassigned; isomer B) | 8.70 | – | 33 nM |

Continued, values first:

| pIC50 [1] | IC90 ([2]; Human immunodeficiency virus 1) | IC90 [2] | SMILES |
| --- | --- | --- | --- |
| < 7.00 | – | – | CN(C[C@@H](CCN1CCC(N2C[C@H](c3ccccc3)OC2=O)CC1)c1ccccc1)S(=O)(=O)c1ccccc1 |
| 6.46 | – | – | C[C@@H]1[C@@H](c2ccccc2)OC(=O)N1C1CCN(CC[C@H](CN(C)S(=O)(=O)c2ccccc2)c2ccccc2)CC1 |
| 7.50 | – | – | CN(C[C@@H](CCN1CCC(N2C[C@@H](c3ccccc3)OC2=O)CC1)c1ccccc1)S(=O)(=O)c1ccccc1 |
| 7.80 | – | – | CN(C[C@@H](CCN1CCC2C(CCN2C(=O)OC(C)(C)C)C1)c1ccccc1)S(=O)(=O)c1ccccc1 (some centres undefined) |
| 9.00 | 3 nM | – | C=CCN(C(=O)OCc1ccc([N+](=O)[O-])cc1)C1CCN(CC[C@](C)(CN(C)S(=O)(=O)c2ccccc2)c2ccccc2)CC1 |
| 8.05 | > 300 nM | – | CN(C[C@@](C)(CCN1CCC2C(CCN2C(=O)OCc2ccccc2)C1)c1ccccc1)S(=O)(=O)c1ccccc1 (mixture of isomers) |
| 7.96 | 111 nM | – | CN(C[C@@](C)(CCN1CCC2C(CCN2C(=O)OC(C)(C)C)C1)c1ccccc1)S(=O)(=O)c1ccccc1 (mixture of isomers) |
